Measurements published in ChEMBL document CHEMBL1201862, “PubChem BioAssay data set” (2004).
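Values below derive from 48-hour exposures of cells grown in 96-well plates, with endpoints linearly interpolated between the two concentrations bracketing the appropriate inhibition level. GI50 = concentration required for 50% inhibition of growth.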 Activity calls are given as the source filed them. No stated cut-off is given here; in the data, active = GI50 up to about 1.1 µM and inactive = higher.

Assays:
Test in all cases: NCI anticancer screen, dose series, 48 h
EKVX = system: EKVX
ACHN = system: ACHN
SK-MEL-5 = system: SK-MEL-5
RPMI-8226 = system: RPMI-8226
UACC-257 = system: UACC-257
A549 = system: A549
A498 = system: A498
NCI-H226 = system: NCI-H226
M14 = system: M14
PC-3 = system: PC-3
IGROV-1 = system: IGROV-1
Malme-3M = system: Malme-3M
HCT-116 = system: HCT-116
NCI/ADR-RES = system: NCI/ADR-RES
UACC-62 = system: UACC-62
K562 = system: K562
OVCAR-3 = system: OVCAR-3
NCI-H23 = system: NCI-H23
SF-268 = system: SF-268
SNB-75 = system: SNB-75

SMILES	GI50 (EKVX)	GI50 (ACHN)	GI50 (SK-MEL-5)	GI50 (RPMI-8226)	GI50 (UACC-257)	GI50 (A549)	GI50 (A498)	GI50 (NCI-H226)	GI50 (M14)	GI50 (PC-3)	GI50 (IGROV-1)	GI50 (Malme-3M)	GI50 (HCT-116)	GI50 (NCI/ADR-RES)	GI50 (UACC-62)	GI50 (K562)	GI50 (OVCAR-3)	GI50 (NCI-H23)	GI50 (SF-268)	GI50 (SNB-75)
Cc1cc(=O)oc2cc(OC(=O)N(C)C)c(Cl)cc12	> 100 µM (inactive)	> 100 µM (inactive)	76 µM (inactive)	> 100 µM (inactive)	80.5 µM (inactive)	> 100 µM (inactive)	> 100 µM (inactive)	29.3 µM (inactive)	83.9 µM (inactive)	> 100 µM (inactive)	> 100 µM (inactive)	84.3 µM (inactive)	> 100 µM (inactive)	> 100 µM (inactive)	21.6 µM (inactive)	> 100 µM (inactive)	> 100 µM (inactive)	> 100 µM (inactive)	86.5 µM (inactive)	
Clc1cccc(/N=C/C=C/Nc2cccc(Cl)c2)c1	> 10 µM (inactive)	> 10 µM (inactive)	16.8 µM (inactive)	27.2 µM (inactive)	16.6 µM (inactive)	28.5 µM (inactive)	22.9 µM (inactive)	> 10 µM (inactive)		15.1 µM (inactive)	16 µM (inactive)	> 10 µM (inactive)	15 µM (inactive)	16.9 µM (inactive)			18.3 µM (inactive)	21.3 µM (inactive)	> 10 µM (inactive)	> 10 µM (inactive)
CCOC(=O)c1c(N2CCCC2)nsc1Nc1ccccc1	> 100 µM (inactive)	> 100 µM (inactive)	> 100 µM (inactive)	> 100 µM (inactive)	> 100 µM (inactive)	> 100 µM (inactive)	> 100 µM (inactive)	> 100 µM (inactive)	> 100 µM (inactive)	> 100 µM (inactive)	> 100 µM (inactive)	> 100 µM (inactive)	> 100 µM (inactive)	> 100 µM (inactive)		> 100 µM (inactive)		> 100 µM (inactive)	> 100 µM (inactive)	> 100 µM (inactive)
Cc1nc2sccn2c1C(=O)OCCOCCOCCOCCOC(=O)c1c(C)nc2sccn12	32.1 µM (inactive)	> 100 µM (inactive)	11.7 µM (inactive)	52.7 µM (inactive)	16.5 µM (inactive)	> 100 µM (inactive)	> 100 µM (inactive)	16 µM (inactive)	43.4 µM (inactive)	63.2 µM (inactive)	> 100 µM (inactive)	> 100 µM (inactive)	> 100 µM (inactive)	27.9 µM (inactive)	38.6 µM (inactive)	35.5 µM (inactive)	> 100 µM (inactive)	19.5 µM (inactive)	> 100 µM (inactive)	
Clc1ccc(C2Nc3ccccc3C3=NCCN32)cc1 (configuration not stated)	25.6 µM (inactive)	35.3 µM (inactive)	15.7 µM (inactive)	15.9 µM (inactive)	17.5 µM (inactive)	32.3 µM (inactive)	22.9 µM (inactive)		15.1 µM (inactive)	55.3 µM (inactive)	14.2 µM (inactive)	15.4 µM (inactive)	12.4 µM (inactive)	19.5 µM (inactive)	16.9 µM (inactive)	15.7 µM (inactive)	33.5 µM (inactive)	19.5 µM (inactive)	20.7 µM (inactive)	
CC(=O)Oc1c2ccsc2c(OC(C)=O)c2ccsc12	1.5 µM (inactive)	0.667 µM (active)	0.167 µM (active)	6.56 µM (inactive)	0.189 µM (active)	0.224 µM (active)	1.77 µM (inactive)	2.54 µM (inactive)	0.269 µM (active)	0.164 µM (active)	1.79 µM (inactive)	0.286 µM (active)	0.764 µM (active)	0.284 µM (active)	1.59 µM (inactive)		0.417 µM (active)	0.269 µM (active)	0.906 µM (active)	0.286 µM (active)
CN1C(=O)C(O)CC1c1ccccc1C(F)(F)F (configuration not stated)	> 100 µM (inactive)	> 100 µM (inactive)	> 100 µM (inactive)	> 100 µM (inactive)	> 100 µM (inactive)	> 100 µM (inactive)	> 100 µM (inactive)	> 100 µM (inactive)	> 100 µM (inactive)	> 100 µM (inactive)	> 100 µM (inactive)	> 100 µM (inactive)	> 100 µM (inactive)	> 100 µM (inactive)	> 100 µM (inactive)		> 100 µM (inactive)	> 100 µM (inactive)		> 100 µM (inactive)
CCN(CC)C(=S)SC(C(=O)Nc1nnc(-c2ccc(Cl)cc2)o1)c1ccccc1 (configuration not stated)	8.47 µM (inactive)	6.64 µM (inactive)	4.6 µM (inactive)	4.72 µM (inactive)	31.6 µM (inactive)	17.9 µM (inactive)	11.9 µM (inactive)		10.8 µM (inactive)	3.35 µM (inactive)	2.7 µM (inactive)	13.8 µM (inactive)	3.46 µM (inactive)	5.68 µM (inactive)	7.35 µM (inactive)	12.8 µM (inactive)	3.21 µM (inactive)	22.1 µM (inactive)	15.6 µM (inactive)	
CCOC(=O)c1nc2ccc(C(F)(F)F)cc2nc1Nc1ccc(Cl)c(Cl)c1	> 100 µM (inactive)	97.1 µM (inactive)	> 100 µM (inactive)	> 100 µM (inactive)	> 100 µM (inactive)	67.8 µM (inactive)	> 100 µM (inactive)		79.8 µM (inactive)	> 100 µM (inactive)	> 100 µM (inactive)	> 100 µM (inactive)	64.7 µM (inactive)	> 100 µM (inactive)	> 100 µM (inactive)	39.4 µM (inactive)	38.3 µM (inactive)	> 100 µM (inactive)	> 100 µM (inactive)	48.8 µM (inactive)
CC(C)(C)OC(=O)[C@H]1CCC(=S)N1Cc1ccccc1	> 100 µM (inactive)	> 100 µM (inactive)	> 100 µM (inactive)	> 100 µM (inactive)	> 100 µM (inactive)	> 100 µM (inactive)	> 100 µM (inactive)	> 100 µM (inactive)	> 100 µM (inactive)	> 100 µM (inactive)	> 100 µM (inactive)	> 100 µM (inactive)	> 100 µM (inactive)	> 100 µM (inactive)	> 100 µM (inactive)		> 100 µM (inactive)	> 100 µM (inactive)		> 100 µM (inactive)
Oc1c(NCn2nc(CCCCCCCCc3nn(CNc4ccc5ccccc5c4O)c(=S)o3)oc2=S)ccc2ccccc12	> 100 µM (inactive)	> 100 µM (inactive)	30.4 µM (inactive)	46.8 µM (inactive)	75.5 µM (inactive)	44.4 µM (inactive)	> 100 µM (inactive)	> 100 µM (inactive)	34.8 µM (inactive)	> 100 µM (inactive)	50.2 µM (inactive)	75.2 µM (inactive)	11.9 µM (inactive)	44.5 µM (inactive)	68.4 µM (inactive)	> 100 µM (inactive)		97.5 µM (inactive)	> 100 µM (inactive)	> 100 µM (inactive)
